Like-named read-outs stand apart in the source and are kept apart here.
Assay: Plasma PK of brensocatib, BID vs QD oral dosing, Wistar rats
Assay type: in vivo
Settings: both sexes, rat; for half-life: Wistar, po; for AUC(0-t): first 24 h
Protocol: A dose frequency study was performed in male and female mice (C57BL/6 & BALB/c) and in male and female rats (Sprague Dawley & Wistar) investigating twice daily (BID) versus once daily (QD) brensocatib administration.
Briefly, animals were weighed and randomized into different treatment groups. In total, three different dosing levels of brensocatib were tested in each species and strain; each QD dosing level was equivalent to 1.5-times the matching daily BID dose. For BID dosing, the second daily dose was administered 8-h post the morning dose. C57BL/6 mice were dosed either BID or QD for 7 consecutive days at 0/0, 0.5/0.75, 2/3, and 20/30 mg/kg/day (BID/QD). BALB/c mice were dosed for 7 consecutive days at 0/0, 0.2/0.3, 2/3, and 20/30 mg/kg/day (BID/QD). SD rats were dosed for 9 consecutive days at 0/0, 0.2/0.3, 2/3, and 20/30 mg/kg/day (BID/QD). Wistar rats were dosed for 7 consecutive days at 0/0, 0.2/0.3, 2/3, and 20/30 mg/kg/day (BID/QD).
For sparse PK analysis via LC-MS/MS, plasma was collected from animals during the first 24 h of dosing at prescribed timepoints. The timepoints included 1, 3, 8, and 24 h post initial dose for QD groups, and 1, 3, 8, 9, 11, and 24 h post initial dose for BID groups. Note that the 8- and 24-h plasma samples were prior to the afternoon dose for BID groups and prior to the second day dose for all groups, respectively. See section Quantification of Plasma Brensocatib Concentrations for details.
Blood was collected via the tail-vein technique and centrifuged to separate and collect the plasma. The resulting plasma samples were stored at −20°C or lower until LC-MS/MS analysis.
The plasma concentration of brensocatib was quantified by liquid chromatography, tandem mass spectrometry (LC-MS/MS), a Sciex API6500 mass spectrometer (SCIEX, Framingham, MA). Two brensocatib stock solutions were prepared, one for the preparation of the 8-point standard (STD) curve spiking solutions and the other for the preparation of the quantitative control spiking solutions (QCs) at three levels. The STD curve and QCs were prepared by 2% spiking from the spiking solutions into mouse or rat plasma. The samples were extracted using a protein precipitation method, where 10 µL of sample was mixed with 100 µL of internal standard working solution (100 ng/mL ^6C13-brensocatib in methanol), vortexed for 5 s, and centrifuged at 21,130 × g at 4°C for 15 min. The supernatant was mixed with an equal volume of water and 10 μL was injected into a Phenomenex Kinetex Biphenyl column (3.0 mm × 50 mm; 2.6 μm; 65°C; 0.8 mL/min) with an elution gradient consisting of mobile phase A (10 mM ammonium formate) and mobile phase B (methanol) over 2 min from 5% to 95% B. The mass spectrometer was equipped with an atmospheric-pressure chemical ionization source operating in positive mode.
Individual plasma concentrations were plotted and the area under the curve (AUC) was calculated using the trapezoid method. The elimination rate constant (k e ) was calculated as the negative natural log of the plasma concentration over time (Eq. 1) starting at the max concentration (C max) after the most recent dose to the last measurable plasma concentration between doses. The calculated k e was used to define the half-life (t 1/2 ) based on Eq. 2; where 0.693 is the natural log of 2 and assumes a first-order reaction. ke=−ln∆C/∆t (1) t1/2=0.693/ke (2)

Cn1c(=O)oc2ccc(-c3ccc(C[C@@H](C#N)NC(=O)[C@@H]4CNCCCO4)cc3)cc21 [brensocatib]
half-life (0.2 mg/kg/day, oral BID, 0.2 mg/kg/day, evening dose, read-out: t1/2, PM dose (converted)): 6.45 ± 0.55 h
half-life (0.2 mg/kg/day, oral BID, 0.2 mg/kg/day, morning dose, read-out: t1/2, AM dose (converted)): 5.48 ± 1.76 h
half-life (0.3 mg/kg/day, oral QD, 0.3 mg/kg/day, read-out: t1/2, AM dose (converted)): 34.3 ± 20.3 h
half-life (2 mg/kg/day, oral BID, 2 mg/kg/day, evening dose, read-out: t1/2, PM dose (converted)): 4.99 ± 0.33 h
half-life (2 mg/kg/day, oral BID, 2 mg/kg/day, morning dose, read-out: t1/2, AM dose (converted)): 10.2 ± 1.47 h
half-life (3 mg/kg/day, oral QD, 3 mg/kg/day, read-out: t1/2, AM dose (converted)): 5.14 ± 0.5 h
half-life (20 mg/kg/day, oral BID, 20 mg/kg/day, evening dose, read-out: t1/2, PM dose (converted)): 4.33 ± 0.16 h
half-life (20 mg/kg/day, oral BID, 20 mg/kg/day, morning dose, read-out: t1/2, AM dose (converted)): 7.81 ± 1.38 h
half-life (30 mg/kg/day, oral QD, 30 mg/kg/day, read-out: t1/2, AM dose (converted)): 4.41 ± 0.18 h
AUC(0-t) (oral BID, 0.2 mg/kg/day, read-out: AUC0–24h): 377 ± 78 ng·h/mL
AUC(0-t) (oral BID, 0.2 mg/kg/day, read-out: AUC(0–24)): 0.9 ± 0.18 µM·h
AUC(0-t) (oral BID, 2 mg/kg/day, read-out: AUC0–24h): 9820 ± 1820 ng·h/mL
AUC(0-t) (oral BID, 2 mg/kg/day, read-out: AUC(0–24)): 23.4 ± 4.32 µM·h
AUC(0-t) (oral BID, 20 mg/kg/day, read-out: AUC0–24h): 173000 ng·h/mL
AUC(0-t) (oral BID, 20 mg/kg/day, read-out: AUC(0–24)): 412 ± 89.6 µM·h
AUC(0-t) (oral QD, 0.3 mg/kg/day, read-out: AUC0–24h): 1040 ± 291 ng·h/mL
AUC(0-t) (oral QD, 0.3 mg/kg/day, read-out: AUC(0–24)): 2.46 ± 0.69 µM·h
AUC(0-t) (oral QD, 3 mg/kg/day, read-out: AUC0–24h): 11700 ng·h/mL
AUC(0-t) (oral QD, 3 mg/kg/day, read-out: AUC(0–24)): 27.9 ± 5.53 µM·h
AUC(0-t) (oral QD, 30 mg/kg/day, read-out: AUC0–24h): 266000 ng·h/mL
AUC(0-t) (oral QD, 30 mg/kg/day, read-out: AUC(0–24)): 634 ± 52.4 µM·h

— publication PMC10394516, “The pharmacokinetic profile of brensocatib and its effect on pharmacodynamic biomarkers including NE, PR3, and CatG in various rodent species” (Frontiers in Pharmacology, 2023)
